Publication PMC11647681, “Discovery of Non-Covalent Inhibitors for SARS-CoV-2 PLpro: Integrating Virtual Screening, Synthesis, and Experimental Validation” (ACS Medicinal Chemistry Letters, 2024)
≈ marks a conversion by molar mass, not a printed value. Where “and” joins values, the source holds several entries; their conditions need not be identical. Identical values can stand only once. Like-named read-outs stand apart in the source and are kept apart here.

Tests used:
PLpro = details: cited from earlier work; for IC50: PLpro
SARS-CoV-2 PLpro = SARS-CoV-2 PLpro (Severe acute respiratory syndrome coronavirus 2, UniProt P0DTD1); assay: SARS-CoV-2 PLpro inhibition assay (enzymatic, LKGG-AMC substrate); type: biochemical; details: for IC50: enzymatic assay; for Ki: Hanes-Woolf plot; for Ki / inhibition mechanism: kinetic characterization
in vitro [1] = details: chlorocebus sabaeus
in vitro [2] = details: human
[3] = mouse, microsomes, 0.5 h; cited from earlier work
[4] = rat, microsomes, 0.5 h; cited from earlier work

CCn1ccc(-c2cc(-c3cnn(C)c3)cc([C@@H](C)NC(=O)c3cc(OCCN(C)C)ccc3C)c2)n1 [Jun12682]
protease, deubiquitinase, and deISGylase activity of PLpro (PLpro): inhibited

CCN(CC)Cc1cc(Nc2nc3ccccc3[nH]2)ccc1O [Compound 3, CCN(CC)Cc1cc(ccc1O)Nc1nc2ccccc2[nH]1]
IC50 (SARS-CoV-2 PLpro): 127 µM

CNC(=O)c1ccc(-c2ccc3nccc(NC4CCNCC4)c3n2)cn1 [Compound 84, O=C(NC)C1=NC=C(C2=NC3=C(N=CC=C3NC4CCNCC4)C=C2)C=C1]
IC50 (SARS-CoV-2 PLpro): 39.5 ± 4.62 µM
CC50 (in vitro [1]): 47.3 µM
CC50 (in vitro [2]): > 50 µM
solubility (physchem): 175 µM (≈ 63.4 µg/mL)

S=C(SSC(=S)N1CCOCC1)N1CCOCC1 [RI173]
IC50 (PLpro): 0.2 µM

Cn1ccc(-c2ccc3nccc(N[C@@H]4CCNC4)c3n2)cc1=O [Compound 1, Cn1ccc(cc1=O)-c1ccc2nccc(NC3CC[NH2+]C3)c2n1]
Ki (SARS-CoV-2 PLpro): 22.4 ± 6.7 µM
IC50 (SARS-CoV-2 PLpro): 73.6 µM
inhibition mechanism (SARS-CoV-2 PLpro): competitive
inhibition test in absence and presence of Triton (aggregation check) (SARS-CoV-2 PLpro; with or without 0.01% Triton): no significant differences
CC50 (in vitro [1]): 23.8 µM
CC50 (in vitro [2]): > 50 µM
solubility (physchem): 195 µM (≈ 62.7 µg/mL)

COc1ccc(-c2ccc3nccc(N[C@@H]4CCNC4)c3n2)cn1 [Compound 85, COC1=NC=C(C2=NC3=C(N=CC=C3N[C@@H]4CCNC4)C=C2)C=C1]
fold improvement in PLpro activity (SARS-CoV-2 PLpro; 85 compared with 1): 5 fold
Ki (SARS-CoV-2 PLpro): 22.9 µM and 20.1 µM
IC50 (SARS-CoV-2 PLpro): 15.1 ± 2.19 µM
inhibition mechanism (SARS-CoV-2 PLpro): competitive
inhibition test in absence and presence of CHAPS detergent (aggregation check) (SARS-CoV-2 PLpro; with and without 1 mM CHAPS): No significant difference
CC50 (in vitro [1]): 7.47 µM
CC50 (in vitro [2]): 26.3 µM
solubility (physchem): 190 µM (≈ 61.1 µg/mL)
Microsomal stability, % remaining after 30 min [3]: 66.61%
Microsomal stability, % remaining after 30 min [4]: 62.68%

O=C(NCc1cccc(F)c1)c1ncc2ccccn12 [Compound 6, Fc1cccc(CNC(=O)c2ncc3ccccn23)c1]
IC50 (SARS-CoV-2 PLpro): 194 µM

NCCNc1nccc2[nH]c(-c3ccc(F)c(F)c3)nc12 [Compound 4, NCCNc1nccc2[nH]c(nc12)-c1ccc(c(c1)F)F]
IC50 (SARS-CoV-2 PLpro): 130 µM

CCN(CCNc1nc2ccccc2[nH]1)Cc1cc(Cl)ccc1O [Compound 2, CCN(CCNc1nc2ccccc2[nH]1)Cc1cc(ccc1O)Cl]
IC50 (SARS-CoV-2 PLpro): 102 µM

CS(=O)(=O)c1cccc(-c2ccc3nccc(N4CCNCC4)c3n2)c1 [Compound 83, O=S(C1=CC=CC(C2=NC3=C(N=CC=C3N4CCNCC4)C=C2)=C1)(C)=O]
IC50 (SARS-CoV-2 PLpro): 54.8 µM
CC50 (in vitro [1]): 43.6 µM
CC50 (in vitro [2]): > 50 µM
solubility (physchem): 180 µM (≈ 66.3 µg/mL)
Microsomal stability, % remaining after 30 min [3]: 60.24%
Microsomal stability, % remaining after 30 min [4]: 50.41%

CN1CCC(Nc2ccnc3ccc(-c4ccc(C(=O)NCCO)nc4)nc23)CC1 [Compound 82, O=C(NCCO)C1=NC=C(C2=NC3=C(N=CC=C3NC4CCN(C)CC4)C=C2)C=C1]
IC50 (SARS-CoV-2 PLpro): 79.8 ± 20.4 µM
CC50 (in vitro [1]): > 50 µM
CC50 (in vitro [2]): > 50 µM
solubility (physchem): 200 µM (≈ 81.3 µg/mL)

O=C1CN(C(=O)CNC(=O)c2ccc3c(c2)B(O)OC3)CCN1 [Compound 5, O[B]1OCc2ccc(cc21)C(=O)NCC(=O)N1CCNC(=O)C1]
IC50 (SARS-CoV-2 PLpro): 137 µM
